Measured values: patent publication EP4610269A1, “UROKINASE PLASMINOGEN ACTIVATOR SURFACE RECEPTOR (UPAR) LIGANDS FOR DIAGNOSTIC OR THERAPEUTIC USE” (3B Pharmaceuticals GmbH, priority 2024, dated 2025)
Like-named read-outs stand apart in the source and are kept apart here. *1 amine or outer side, *2 acyl side, *3 side chain or, on linkers, in order; H or OH if unused. Where a SMILES comes first, the peptide text is derived from it. Bridges are numbered along the chain shown (N, C = ends). [ ]: non-standard residue; d: D form. The star is where a group is joined. Pro(trans-4-NH2) = O=C([C@@H]1C[C@@H](N[*:3])CN1[*:1])[*:2]; DOTA = O=C(O)CN1CCN(CC(=O)O)CCN(CC(=O)*)CCN(CC(=O)O)CC1; Phe(4-CONH2) = NC(=O)c1ccc(C[C@H](N)C(=O)O)cc1; Pro(cis-4-F) = O=C(O)[C@@H]1C[C@H](F)CN1; Hyp = O=C(O)[C@@H]1C[C@@H](O)CN1; 3Pal = N[C@@H](Cc1cccnc1)C(=O)O; Pentanoyl(4-Me) = CC(C)CCC(=O)*; Cit = NC(=O)NCCC[C@H](N)C(=O)O; Butoxycarbonyl = CCCCOC(=O)*; Suc = O=C(CCC(=O)[*:2])[*:1]; Orn = NCCC[C@H](N)C(=O)O; Nva = CCC[C@H](N)C(=O)O; Pentanoyl = CCCCC(=O)*; AEEA = NCCOCCOCC(=O)O

Legend:
[1] = target: T1, Recombinant soluble human NEP (Homo sapiens, UniProt P08473); assay: Proteolytic stability assay against NEP; type: in vitro ADME; details: recombinant soluble human NEP, human NEP 100 ng/mL, compound 10 µM, 37°C, LC-MS quantification, read-out: % intact compound remaining after 24h incubation
T1 construct: Recombinant soluble human NEP; purchased BioTechne, Wiesbaden, Germany
Description: To assess the stability of compounds against NEP, the compounds were subjected to an in vitro assay based on the protocol described by Edelson et al. (Edelson, Makhlina et al. 2013).
Recombinant soluble human NEP (BioTechne, Wiesbaden, Germany) at a concentration of 100 ng/mL was mixed with the compound (10 µM) and a stable internal standard (10 µM) and incubated at 37°C. After several time points, samples were taken and analyzed with LC-MS.
The determination of the analyte in the clean sample solutions was performed on an Agilent 1290 UHPLC system coupled to an Agilent 6530 Q-TOF mass spectrometer. The chromatographic separation was carried out on a Phenomenex BioZen XB-C18 HPLC column (50 × 2 mm, 1.7 µm particle size) with gradient elution using a mixture of 0.1% formic acid in water as eluent A and acetonitrile as eluent B (2% B to 41% in 7 min, 800 µl/min, 40°C). Mass spectrometric detection was performed in positive ion ESI mode by scanning the mass range from m/z 50 to 3000 with a sampling rate of 2 / sec.
From the mass spectrometric raw data the ion currents for the double or triple charged monoisotopic signal was extracted for both, the compound and the internal standard.
Quantitation was performed by external matrix calibration with internal standard using the integrated analyte signals.
The activity of NEP was examined using a commercially available chromogenic substrate of NEP.
The result is stated as "% intact compound remaining after 24 h incubation" and means that from the amount of material at the start of the experiment the stated percentage is detected as unchanged material at the end of the experiment by LC-MS quantification. Since all compounds are more than 50% intact after 24 h they are considered as stable enough for diagnostic and therapeutic applications. Table 14: Results of the NEP stability assay

human uPAR (uPAR-Fc) = target: T2, human uPAR (uPAR-Fc) (Homo sapiens, UniProt Q03405); assay: Surface plasmon resonance (SPR) assay, single cycle kinetics; type: binding; details: pKD category for uPAR SPR activity assay, uPAR-Fc on Protein A-Chip, 25°C, read-out: pKD CAT (converted)
T2 construct: comprising amino acids Leu23-Arg303 according to UniProt entry Q03405.1; purchased R&D Systems 10378-UK-100
Outline: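 uPAR-Fc (Leu23-Arg303 extracellular domains, human IgG1 Fc) captured on Protein A chip to ~2000 RU; single-cycle kinetics at 25°C in HEPES running buffer pH 7.4 with 0.1% DMSO. KD from double-referenced sensorgrams fitted to 1:1 Langmuir model, reported as pKD.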

T2 sequence (Q03405 23-303): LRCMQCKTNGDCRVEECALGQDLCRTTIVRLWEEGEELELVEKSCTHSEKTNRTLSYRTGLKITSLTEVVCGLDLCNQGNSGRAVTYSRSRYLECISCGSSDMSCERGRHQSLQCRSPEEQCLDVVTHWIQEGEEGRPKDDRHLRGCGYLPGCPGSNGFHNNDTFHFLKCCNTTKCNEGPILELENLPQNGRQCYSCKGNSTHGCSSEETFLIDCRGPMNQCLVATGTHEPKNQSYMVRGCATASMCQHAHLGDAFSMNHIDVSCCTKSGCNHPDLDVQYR
T1 sequence (P08473 52-750 limits assumed): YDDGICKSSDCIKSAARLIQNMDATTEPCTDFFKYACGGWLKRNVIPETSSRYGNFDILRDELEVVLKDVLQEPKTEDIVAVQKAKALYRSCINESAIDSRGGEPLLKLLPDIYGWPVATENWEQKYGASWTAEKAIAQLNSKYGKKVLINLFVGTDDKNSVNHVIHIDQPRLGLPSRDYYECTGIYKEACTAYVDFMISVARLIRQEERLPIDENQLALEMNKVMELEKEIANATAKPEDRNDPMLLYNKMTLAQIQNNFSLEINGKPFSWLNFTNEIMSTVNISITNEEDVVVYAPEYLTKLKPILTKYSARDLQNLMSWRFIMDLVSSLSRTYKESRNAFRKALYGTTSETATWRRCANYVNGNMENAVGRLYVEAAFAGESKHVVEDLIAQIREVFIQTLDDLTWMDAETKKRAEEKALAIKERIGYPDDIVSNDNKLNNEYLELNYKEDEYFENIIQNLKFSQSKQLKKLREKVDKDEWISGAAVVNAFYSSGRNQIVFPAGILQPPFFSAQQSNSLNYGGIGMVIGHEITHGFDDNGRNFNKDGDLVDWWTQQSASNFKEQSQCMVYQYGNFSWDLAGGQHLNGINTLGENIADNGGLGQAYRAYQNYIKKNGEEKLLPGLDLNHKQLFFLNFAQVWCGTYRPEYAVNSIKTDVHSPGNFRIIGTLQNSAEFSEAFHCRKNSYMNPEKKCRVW

Row | Structure (SMILES) | remaining at 24 h, 10 µM [1] [%] | Kd (human uPAR (uPAR-Fc)) [nM] | Kd (human uPAR (uPAR-Fc); single cycle kinetics) [nM]
1 | CCCCOC(=O)N[C@H]1CSSC[C@@H](C(N)=O)NC(=O)[C@H](CCC)NC(=O)[C@H]([C@@H](C)CC)NC(=O)[C@@H]2C[C@@H](O)CN2C(=O)[C@@H]2C[C@H](F)CN2C(=O)[C@H](Cc2ccccc2)NC(=O)[C@H](Cc2ccc(C(N)=O)cc2)NC(=O)[C@H](CCCNC(=O)CN2CCN(CC(=O)O)CCN(CC(=O)O)CCN(CC(=O)O)CC2)NC(=O)[C@H]([C@@H](C)O)NC1=O [UPAR-276, Butoc-[Cys-Thr-Orn(DOTA)-Pcnf-Phe-4Cfp-Hyp-Ile-Nva-Cys]-NHz] (Butoxycarbonyl-CT[Orn](DOTA)[Phe(4-CONH2)]F[Pro(cis-4-F)][Hyp]I[Nva]C-NH2; disulfide 1-10) | 88 | < 1.58 | –
2 | CC[C@H](C)[C@@H]1NC(=O)[C@@H]2CCCN2C(=O)[C@@H]2CCCN2C(=O)[C@H](Cc2ccccc2)NC(=O)[C@H](Cc2ccc(O)cc2)NC(=O)[C@H](CCC(N)=O)NC(=O)[C@H](CCCNC(N)=O)NC(=O)[C@@H](NC(=O)[C@H](CC(C)C)NC(=O)COCCOCCNC(=O)CN2CCN(CC(=O)O)CCN(CC(=O)O)CCN(CC(=O)O)CC2)CSSC[C@@H](C(N)=O)NC(=O)[C@H](CC(C)C)NC1=O [UPAR-229, DOTA-O2Oc-Leu-[Cys-Cit-Gln-Tyr-Phe-Pro-Pro-Ile-Leu-Cys]-NHz] ({DOTA-AEEA}-LC[Cit]QYFPPILC-NH2; disulfide 2-11) | 84 | < 1.58 | –
3 | CC[C@H](C)[C@@H]1NC(=O)[C@@H](C)NC(=O)[C@@H]2CCCN2C(=O)[C@H](Cc2ccccc2)NC(=O)[C@H](Cc2ccc(O)cc2)NC(=O)[C@H](CCC(N)=O)NC(=O)[C@H](CCCNC(N)=O)NC(=O)[C@@H](NC(=O)[C@H](CC(C)C)NC(=O)CN2CCN(CC(=O)O)CCN(CC(=O)O)CCN(CC(=O)O)CC2)CSSC[C@@H](C(N)=O)NC(=O)[C@H](CC(C)C)NC1=O [UPAR-441, DOTA-Leu-[Cys-Cit-Gln-Tyr-Phe-Pro-ala-Ile-Leu-Cys]-NH2] ({DOTA}-LC[Cit]QYFP[dA]ILC-NH2; disulfide 2-11) | 61 | – | < 1.58
4 | CCCCC(=O)N[C@H]1CSSC[C@@H](C(N)=O)NC(=O)[C@H](CCC)NC(=O)[C@H]([C@@H](C)CC)NC(=O)[C@@H]2C[C@@H](O)CN2C(=O)[C@@H]2CCCN2C(=O)[C@H](Cc2ccccc2)NC(=O)[C@H](Cc2ccc(O)cc2)NC(=O)[C@H](CCCCNC(=O)CN2CCN(CC(=O)O)CCN(CC(=O)O)CCN(CC(=O)O)CC2)NC(=O)[C@H](CCCNC(N)=O)NC1=O [UPAR-261, Pent-[Cys-Cit-Lys(DOTA)-Tyr-Phe-Pro-Hyp-Ile-Nva-Cys]-NH2] (Pentanoyl-C[Cit]K(DOTA)YFP[Hyp]I[Nva]C-NH2; disulfide 1-10) | 86 | < 1.58 | –
5 | CCCCC(=O)N[C@H]1CSSC[C@@H](C(N)=O)NC(=O)[C@H](CCC)NC(=O)[C@H]([C@@H](C)CC)NC(=O)[C@@H]2C[C@@H](O)CN2C(=O)[C@@H]2CCCN2C(=O)[C@H](Cc2ccccc2)NC(=O)[C@H](Cc2cccnc2)NC(=O)[C@H](CCCCNC(=O)CN2CCN(CC(=O)O)CCN(CC(=O)O)CCN(CC(=O)O)CC2)NC(=O)[C@H](CCCNC(N)=O)NC1=O [UPAR-138, Pent-[Cys-Cit-Lys(DOTA)-Mpa-Phe-Pro-Hyp-Ile-Nva-Cys]-NH2] (Pentanoyl-C[Cit]K(DOTA)[3Pal]FP[Hyp]I[Nva]C-NH2; disulfide 1-10) | 94 | < 1.58 | –
6 | CC[C@H](C)[C@@H]1NC(=O)[C@@H]2C[C@@H](O)CN2C(=O)[C@@H]2CCCN2C(=O)[C@H](Cc2ccccc2)NC(=O)[C@H](Cc2ccc(O)cc2)NC(=O)[C@H](CCC(N)=O)NC(=O)[C@H](CCCNC(N)=O)NC(=O)[C@@H](NC(=O)CCC(C)C)CSSC[C@@H](C(N)=O)NC(=O)[C@H](CC(C)C)NC1=O [UPAR-174, iHex-[Cys-Cit-Gln-Tyr-Phe-Pro-Hyp-Ile-Leu-Cys]-NH2] ({Pentanoyl(4-Me)}-C[Cit]QYFP[Hyp]ILC-NH2; disulfide 1-10) | 90 | < 1.58 | –
7 | CCC[C@H](NC(=O)CCC(=O)O)C(=O)N[C@H]1CSSC[C@@H](C(N)=O)NC(=O)[C@H](CCC)NC(=O)[C@H]([C@@H](C)CC)NC(=O)[C@@H]2C[C@@H](O)CN2C(=O)[C@@H]2CCCN2C(=O)[C@H](Cc2ccccc2)NC(=O)[C@H](Cc2ccc(O)cc2)NC(=O)[C@H](CCCCNC(=O)CN2CCN(CC(=O)O)CCN(CC(=O)O)CCN(CC(=O)O)CC2)NC(=O)[C@H](CCCNC(N)=O)NC1=O [UPAR-293, HO-Succinyl-Nva-[Cys-Cit-Lys(DOTA)-Tyr-Phe-Pro-Hyp-Ile-Nva-Cys]-NH2] (Suc-[Nva]C[Cit]K(DOTA)YFP[Hyp]I[Nva]C-NH2; disulfide 2-11) | > 95 | < 1.58 | –
8 | CC[C@H](C)[C@@H]1NC(=O)[C@@H](CCCNC(=N)N)NC(=O)[C@@H]2CCCN2C(=O)[C@H](Cc2ccccc2)NC(=O)[C@H](Cc2ccc(O)cc2)NC(=O)[C@H](CCCCNC(=O)CN2CCN(CC(=O)O)CCN(CC(=O)O)CCN(CC(=O)O)CC2)NC(=O)[C@H](CCCNC(N)=O)NC(=O)[C@@H](NC(=O)[C@H](CC(C)C)NC(=O)[C@H](CC(=O)O)NC(C)=O)CSSC[C@@H](C(N)=O)NC(=O)[C@H](CC(C)C)NC1=O [UPAR-306, Ac-Asp-Leu-[Cys-Cit-Lys(DOTA)-Tyr-Phe-Pro-arg-Ile-Leu-Cys]-NH2] (Ac-DLC[Cit]K(DOTA)YFP[dR]ILC-NH2; disulfide 3-12) | 88 | < 1.58 | –
9 | CC[C@H](C)[C@@H]1NC(=O)[C@@H](C)NC(=O)[C@@H]2CCCN2C(=O)[C@H](Cc2ccccc2)NC(=O)[C@H](Cc2ccc(O)cc2)NC(=O)[C@H](CCC(N)=O)NC(=O)[C@H](CCCNC(N)=O)NC(=O)[C@@H](NC(=O)[C@H](CC(C)C)NC(=O)COCCOCCNC(=O)CN2CCN(CC(=O)O)CCN(CC(=O)O)CCN(CC(=O)O)CC2)CSSC[C@@H](C(N)=O)NC(=O)[C@H](CC(C)C)NC1=O [UPAR-245, DOTA-O2Oc-Leu-[Cys-Cit-Gln-Tyr-Phe-Pro-ala-Ile-Leu-Cys]-NH2] ({DOTA-AEEA}-LC[Cit]QYFP[dA]ILC-NH2; disulfide 2-11) | 72 | < 1.58 | –
10 | CC[C@H](C)[C@@H]1NC(=O)[C@@H]2C[C@@H](NC(=O)CN3CCN(CC(=O)O)CCN(CC(=O)O)CCN(CC(=O)O)CC3)CN2C(=O)[C@@H]2CCCN2C(=O)[C@H](Cc2ccccc2)NC(=O)[C@H](Cc2ccc(O)cc2)NC(=O)[C@H](CCC(N)=O)NC(=O)[C@H](CCCNC(N)=O)NC(=O)[C@@H](NC(=O)CCC(C)C)CSSC[C@@H](C(N)=O)NC(=O)[C@H](CC(C)C)NC1=O [UPAR-389, iHex-[Cys-Cit-Gln-Tyr-Phe-Pro-Tap(DOTA)-Ile-Leu-Cys]-NH2] ({Pentanoyl(4-Me)}-C[Cit]QYFP[Pro(trans-4-NH2)](DOTA)ILC-NH2; disulfide 1-10) | > 95 | – | < 1.58
11 | CC[C@H](C)[C@@H]1NC(=O)[C@@H](C)NC(=O)[C@@H]2CCCN2C(=O)[C@H](Cc2ccccc2)NC(=O)[C@H](Cc2ccc(O)cc2)NC(=O)[C@H](CC(=O)O)NC(=O)[C@H](CCCNC(N)=O)NC(=O)[C@@H](NC(=O)CCC(C)C)CSSC[C@@H](C(N)=O)NC(=O)[C@H](CC(C)C)NC1=O [UPAR-434, iHex-[Cys-Cit-Asp-Tyr-Phe-Pro-ala-Ile-Leu-Cys]-NH2] ({Pentanoyl(4-Me)}-C[Cit]DYFP[dA]ILC-NH2; disulfide 1-10) | > 95 | – | < 1.58
